Reference: US20220334101A1, “MODULATING EXTRACELLULAR MATRIX MOVEMENT” (Helmholtz Zentrum Muenchen - Deutsches Forschungszentrum …, priority 2019, published 2022)
Entries after “also recorded” stand apart in the source; their conditions may differ. Counter-ions that a name gives are not always drawn. Where a SMILES comes first, the peptide text is derived from it.

Key:
peritoneum = experiment: ECM (matrix) movement into peritoneal wounds after laparotomy injury, NHS-FITC matrix labelling; type: in vivo, mouse; settings: for organ specificity of the effect on matrix currents: livers and peritoneas compared
liver = experiment: ECM (matrix) movement into liver wounds after electroporation injury, NHS-FITC matrix labelling; type: in vivo, mouse; settings: for recruitment / deposition of fluid matrix after local application: filter paper with 100 nM solution on liver surface for 5 minutes, absence of wounds
liver tissue = experiment: In vivo effects on ECM movement in the presence of modulators (FIG. 20); settings: FIG. 20, modulator administered after injury
Method: An injury within liver tissue was generated, a potential modulator was administered and ECM movement was monitored.

fascia fibroblasts = experiment: Fascia invasion assay (ex vivo fascia 3D Matrigel culture); type: cell-based, mouse
Method: In order to observe the dynamic changes of fascia fibroblasts, the inventors isolated dorsal skin from P4 to P6 neonates of En1^Cre; R26^mTmG mouse lines. Cre positive neonates from this double transgenic mouse line were detected by green fluorescent signal in dorsal skin with a Leica M205 FA stereo microscope. Matrigel was prepared by diluting the stock aliquots with DMEM/F12 medium to a concentration of 6 mg/ml. Then 150 μl prepared gel was added in the center of a 35 mm cell culture dish (Ibidi). 4 mm biopsies were made from the dorsal skin and fascia tissues were then isolated from the dorsal skin tissues. Isolated fascia tissues were then embedded into the gel and were allowed to be solidified for one hour at 37° C. Then the tissue-gel system was maintained in DMEM/F12 medium (Life Technologies) supplemented with 10% FBS (Life Technologies), 1% non-essential amino acid (Thermo Fisher), 1% Glutamax (Thermo Fisher), 1% penicillin and streptomycin (Thermo Fisher) in a 37° C. incubator supplied with 95% O2 and 5% CO2. Medium was changed every other day until day 4 when tissues were collected and fixed. For fixation with Matrigel system, tissues were fixed in 2% paraformaldehyde (VWR) with 0.1% glutaraldehyde (Sigma) for 1 hour and then washed three times with phosphate buffered saline (PBS, Life Technologies) and stored in PBS at 4° C.
Fascia tissues were recorded everyday by a brightfield microscope to check the invasion and contraction state of the tissues. The invasion index was calculated with the following formula: Invasion index=(SD4−SD0)/SD0
SD4 and SD0 represent tissue size (including the migrated area) on Day 4 and Day 0, respectively. The contraction index was calculated with the following formula: Contraction index=(TD0−TD4)/TD0
TD4 and TD0 represent original tissue size (excluding the migrated area) on Day 4 and Day 0 respectively.
The Inventors isolated fascia from back-skin of En1^Cre; R26^mTmG double-transgenic mice, separately incubated whole fascia explants with 26 small molecules, and measured the invasion index (Si)=(SD4−SD0)/SD0 (see Methods) as a proxy measure of sprouting and reticulation.

skin-fascia explants = experiment: Scar-in-a-dish (SCAD) ex vivo skin-fascia explant assay, screening of Prestwick chemical library; type: cell-based, mouse; settings: molecules of table 1 named as inhibitors of ECM movement
Text: Post born Day 0 (P0) neonates of C57BL/6J wild type mouse were first sacrificed by decapitation. Then dorsal back skin was isolated to make 2 mm full thickness biopsies (0 2 mm, Stiefel) that included the epidermis, dermis and deep subcutaneous fascia layers. The whole skin tissue explant system is termed as scar-in-a-dish (SCAD) assay (Patent Application no. PLA17A13). The SCAD tissue was maintained in DMEM/F12 cell culture medium (Life Technologies) supplemented with 10% FBS (Life Technologies), 1% non-essential amino acid (Thermo Fisher), 1% Glutamax (Thermo Fisher), 1% penicillin and streptomycin (Thermo Fisher) in a 37° C. incubator supplied with […] and 5% CO2. Medium was changed every other day until day 5 when SCADs were collected and fixed for histology analysis. To be noticed, the excised skin was submerged […] in culture media, which confined the scar-prone fibroblasts to the explant and discouraged their adherence to the tissue culture plate.
The PCL provides an additional advantage as all chemicals are of stable physicochemical properties, show a high range of chemical diversity, and are with known bioavailability and safety data in humans. All these information helps to reduce the probability of screening low-quality hits and save the costs of preliminary screening process.
In order to accommodate to medium scale screening approach, the Inventors adapted the SCAD explant system into 96-well plate (Falcon) formats, with each well contained one biopsy. […] Plate and liquid handling were performed using a high-throughput screening platform system composed of a Sciclone G3 Liquid Handler from PerkinElmer (Waltham, Mass., USA). On Day 0 tissues were treated either with the respective compound (1 mM stock solution) dissolved in 100% dimethyl sulfoxide (DMSO, Carl Roth) or DMSO alone. 0.5 μl of compounds/DMSO were transferred with a 96-array head to 200 μl DMEM/F12 medium per well to keep the final DMSO concentrations at […]. Tissues were then incubated (37° C.; 5% CO2) for 72 h prior to a second round of compound treatment, which was performed by exchanging cell culture medium per well and transferring […] of compounds/DMSO into the fresh medium. After an incubation time of another 48 h (37° C.; 5% CO2) the tissues were harvested and fixed for histological processing and imaging.
Briefly, the Inventors excised 2-mm full thickness skin biopsies that included epidermis, dermis, and deep subcutaneous fascia layers from mouse backs (see Methods). Skin-fascia explants were submerged fascia-side up in culture media, to confine scar-prone fibroblasts to the explant and discourage their adherence to the tissue culture plate.
The Prestwick library has selected a diverse array of chemicals with strong physicochemical properties, with known bioavailability and clinical safety data. The library is an ideal place to start screening as it covers all major therapeutic chemical classes such as central nervous system, cardiovascular system, metabolism, and infectious diseases.

[1] = inhibitors 10 μM i.p. 2 hours before surgery, organs harvested after 24 h, FITC in wound lysates

Q: For `O=C1c2ccc([N+](=O)[O-])cc2N=C2N(c3ccccc3)CC[C@@]12O` [(S)-nitro-Blebbistatin], which “ECM (matrix) movement, peritoneum” value (peritoneum; [1]) is on record?
A: decreased

Q: What about the “organ specificity of the effect on matrix currents” value (peritoneum) of the same molecule?
A: effected matrix currents of only one organ

Q: Which “ECM (matrix) movement, liver” value (liver; mouse, in vivo, ip) does the source give for `N#CCCN` [BAPN] here?
A: increased

Q: And the “ECM (matrix) movement, peritoneum” value (peritoneum; mouse, in vivo, ip)?
A: increased

Q: How did the “ECM (matrix) movement, peritoneum” value (peritoneum; [1]) turn out when `CC(C)C[C@H](NC(=O)[C@@H](O)[C@H](N)Cc1ccccc1)C(=O)O` [BESTATIN] was run?
A: decreased

Q: `O=C(O)C1(c2ccc3c(c2)OC[C@H](Cc2ccc(-c4ccccc4)cc2)[C@H]3O)CCCC1` [CP-105696] was tested. Which “effect on ECM movement towards the site of injury (phenotype)” value (from here on “effect on ECM movement towards the site”) (liver tissue) did it give?
A: anti-fibrotic phenotype

Q: `CN(C(=O)c1cc2ccccc2cc1C(=O)C(c1cccc2ccccc12)P(=O)(O)O)C1CCN(C(=O)c2ccccc2)CC1` (stereo not shown) [Cath-G inhibitor] was tested. Which “ECM (matrix) movement, liver” value (liver; [1]) did it give?
A: decreased

Q: And the “effect on ECM movement towards the site” value (liver tissue)?
A: anti-fibrotic phenotypes

Q: What about the “effect on ECM movement towards the site” value (liver tissue; listed as cathepsin G inhibitors) of the same molecule?
A: inhibit ECM movement

Q: For `N#CC(=C(O)c1ccc(Cl)cc1Cl)c1nc2cc(Cl)ccc2c(=O)[nH]1` [Ciliobrevin D], which “ECM (matrix) movement, peritoneum” value (peritoneum; [1]) is on record?
A: decreased

Q: What about the “organ specificity of the effect on matrix currents” value (peritoneum) of the same molecule?
A: effected matrix currents of only one organ

Q: Which results are given for `CC(C)C[C@H](NC(=O)N[C@H](C(=O)N[C@@H](CCC(N)=O)C(=O)N[C@@H](C)C=O)[C@@H]1CCNC(=N)N1)C(=O)O` [Elastatinal]?
A: ECM (matrix) movement, liver (liver; [1]): increased; ECM (matrix) movement, peritoneum (peritoneum; [1]): increased; effect on ECM movement towards the site of injury (phenotype) (liver tissue; listed as Elastial): pro-fibrotic phenotype; effect on ECM movement towards the site of injury (phenotype) (liver tissue; listed as elastial): promote ECM movement

Q: For `COC(=O)Nc1nc2ccc(Sc3ccccc3)cc2[nH]1` [Fenbendazole], which “toxic effects to fascia tissues” value (fascia fibroblasts) is on record?
A: toxic effects

Q: Which results are given for `CNC(=O)[C@H](Cc1c[nH]c2ccccc12)NC(=O)[C@@H](CC(=O)NO)CC(C)C` [GM6001]?
A: potency among the protease inhibitors on matrix currents (liver; livers and peritoneas): most potent; ECM (matrix) movement, liver (liver; mouse, in vivo, ip): decreased; ECM (matrix) movement, peritoneum (peritoneum; [1]): decreased; effect on ECM movement towards the site of injury (phenotype) (liver tissue): anti-fibrotic phenotypes; also recorded: inhibit ECM movement

Q: `O=CN1CC/C(=C\c2ccc3c(c2)OCO3)C1=O` [KNK437] was tested. Which “ECM (matrix) movement, liver” value (liver; [1]) did it give?
A: decreased

Q: What about the “ECM (matrix) movement, peritoneum” value (peritoneum; [1]) of the same molecule?
A: decreased

Q: For `COC(=O)[C@@H](N)CCCNC(=N)N[N+](=O)[O-]` [L-Name], which “effect on ECM movement towards the site” value (liver tissue) is on record?
A: anti-fibrotic phenotype

Q: Which “recruitment / deposition of fluid matrix after local application” value (liver) does the source give for `CCCCC/C=C\C[C@@H](O)/C=C/C=C/C=C\[C@@H](O)CCCC(=O)O` [LTB4] here?
A: forms new deposits of matrix

Q: How did the “effect on ECM movement towards the site” value (liver tissue) turn out when `CCc1cc(C(C)=O)c(O)cc1OCCCCCC(C)(C)c1nn[nH]n1` [LY255283] was run?
A: anti-fibrotic phenotypes; also recorded: inhibit ECM movement

Q: Which results are given for `CCCCC[C@H](O)/C=C/C=C\C=C\C=C\[C@@H](O)[C@@H](O)CCCC(=O)O` [Lipoxin A4]?
A: recruitment / deposition of fluid matrix after local application (liver): led to recruitment of fluid matrix; recruitment / deposition of fluid matrix after local application (liver; listed as Lipoxin): can be directed with local application

Q: With `COc1ccc2c(c1)N(C[C@H](C)CN(C)C)c1ccccc1S2.O=C(O)/C=C\C(=O)O` [Methotrimeprazine maleat salt] as the molecule, how does the “phenotype as inhibitor of ECM movement” value (skin-fascia explants) read?
A: anti-fibrotic phenotype

Q: How did the “phenotype as inhibitor of ECM movement” value (skin-fascia explants) turn out when `C[C@H]1NC(=O)NC1=O` [Methylhydantoin-5-(D)] was run?
A: anti-fibrotic phenotype

Q: How did the “phenotype as inhibitor of ECM movement” value (skin-fascia explants) turn out when `CC[C@H](C)C(=O)O[C@H]1CCC=C2C=C[C@H](C)[C@H](CC[C@@H]3C[C@@H](O)CC(=O)O3)[C@H]21` [Mevastatin] was run?
A: anti-fibrotic phenotype

Q: How did the “phenotype as inhibitor of ECM movement” value (skin-fascia explants) turn out when `O=C1CC[C@@]2(O)[C@H]3Cc4ccc(O)c5c4[C@@]2(CCN3CC2CC2)[C@H]1O5` [Naltrexone hydrochloride dehydrate, Naltrexone hydrochloride dihydrate] was run?
A: anti-fibrotic phenotype

Q: `CN1CCOC(c2ccccc2)c2ccccc2C1` (stereo not shown) [Nefopam hydrochloride] was tested. Which “phenotype as inhibitor of ECM movement” value (skin-fascia explants) did it give?
A: anti-fibrotic phenotype

Q: How did the “phenotype as inhibitor of ECM movement” value (skin-fascia explants) turn out when `C#C[C@]1(O)CC[C@H]2[C@@H]3CCC4=C(CCC(=O)C4)[C@H]3CC[C@@]21C` [Norethynodrel] was run?
A: anti-fibrotic phenotype

Q: For `CCN(CC)CCc1nc(-c2ccccc2)no1.O=C(O)CC(O)(CC(=O)O)C(=O)O` [Oxalamine citrate salt], which “phenotype as inhibitor of ECM movement” value (skin-fascia explants) is on record?
A: anti-fibrotic phenotype

Q: Which “phenotype as inhibitor of ECM movement” value (skin-fascia explants) does the source give for `CCN1CCN(C(=O)N[C@@H](C(=O)N[C@@H]2C(=O)N3[C@@H]2SC(C)(C)[C@@H]3C(=O)O)c2ccccc2)C(=O)C1=O` [Piperacillin sodium salt] here?
A: anti-fibrotic phenotype

Q: How did the “phenotype as inhibitor of ECM movement” value (skin-fascia explants) turn out when `CC(C)(C)C(=O)OCOC(=O)[C@@H]1N2C(=O)[C@@H](NC(=O)[C@H](N)c3ccccc3)[C@H]2SC1(C)C` [Pivampicillin] was run?
A: anti-fibrotic phenotype

Q: For `CC(=N)NCc1cccc(CN)c1` [Prestw 1400W, 1400W], which “effect on ECM movement towards the site” value (liver tissue) is on record?
A: anti-fibrotic phenotypes

Q: And the “effect on ECM movement towards the site” value (liver tissue; listed as W1400)?
A: inhibit ECM movement

Q: How did the “phenotype as inhibitor of ECM movement” value (skin-fascia explants) turn out when `CCCOc1cc(N)ccc1C(=O)OCCN(CC)CC` [Propoxycaine hydrochloride] was run?
A: anti-fibrotic phenotype

Q: How did the “phenotype as inhibitor of ECM movement” value (skin-fascia explants) turn out when `NC(=O)c1cnccn1` [Pyrazinamide] was run?
A: anti-fibrotic phenotype

Q: How did the “ECM (matrix) movement, liver” value (liver; [1]) turn out when `O=c1c(O)c(-c2ccc(O)c(O)c2)oc2cc(O)cc(O)c12` [Quercetin] was run?
A: decreased

Q: What about the “ECM (matrix) movement, peritoneum” value (peritoneum; [1]) of the same molecule?
A: decreased

Q: With `CCOc1cc(CC(=O)N[C@@H](CC(C)C)c2ccccc2N2CCCCC2)ccc1C(=O)O` [Repaglinide] as the molecule, how does the “phenotype as inhibitor of ECM movement” value (skin-fascia explants) read?
A: anti-fibrotic phenotype

Q: Which “phenotype as inhibitor of ECM movement” value (skin-fascia explants) does the source give for `COc1ccc(NS(=O)(=O)c2ccc(N)cc2)nn1` [Sulfamethoxypyridazine] here?
A: anti-fibrotic phenotype

Q: Which “phenotype as inhibitor of ECM movement” value (skin-fascia explants) does the source give for `Nc1ccc(S(=O)(=O)Nc2ccnn2-c2ccccc2)cc1` [Sulfaphenazole] here?
A: anti-fibrotic phenotype

Q: `Nc1ccc(S(=O)(=O)Nc2cnc3ccccc3n2)cc1` [Sulfaquinoxaline sodium salt] was tested. Which “phenotype as inhibitor of ECM movement” value (skin-fascia explants) did it give?
A: anti-fibrotic phenotype

Q: How did the “phenotype as inhibitor of ECM movement” value (skin-fascia explants) turn out when `[H]/N=C(/NCCCCC)N/N=C/c1c[nH]c2ccc(OC)cc12` [Tegaserod maleate] was run?
A: anti-fibrotic phenotype

Q: With `COC(=O)CCC(=O)N[C@@H](C)C(=O)N[C@@H](C)C(=O)N1CCC[C@H]1C(=O)N[C@@H](C)C(=O)CCl` [elastase inhibitor II] (HELM PEPTIDE1{[COC(=O)CCC(=O)[*:2]].A.A.P.A.[ClC[*:1]]}$$$$V2.0) as the molecule, how does the “ECM (matrix) movement, liver” value (liver; [1]) read?
A: increased

Q: And the “ECM (matrix) movement, peritoneum” value (peritoneum; [1])?
A: increased
